# Measured values published in US8338367B2, “Fused heteroaryl diamide compounds useful as MMP-13 inhibitors” (Boehringer Ingelheim International GmbH, priority 2008, dated 2012).
# pIC50: −log10 of the molar value.
# Molecular target: MMP13 (Homo sapiens, UniProt P45452)
# Assay: EnzoLyte 520 Generic MMP Assay Kit (FRET peptide substrate), MMP-13 inhibition
# Format: biochemical
# From the text: The EnzoLyte™ 520 Generic MMP Assay Kit (AnaSpec Inc.) can detect the activity of several MMPs including MMP-1, 2, 3, 7, 8, 9, 13, and 14. This kit uses a 5-FAM/QXL™ 520 fluorescence resonance energy transfer (FRET) peptide as an MMP substrate. In the intact FRET peptide, the fluorescence of 5-FAM is quenched by QXL™ 520. Upon cleavage into two separate fragments by MMPs, the fluorescence of 5-FAM is recovered, and can be monitored at excitation/emission wavelengths=490 nm/520 nm. The assays are performed in a convenient 96-well or 384-well microplate format.
row,Structure (SMILES),pIC50
1,"CNC(=O)[C@@H](NC(=O)c1ccc(-c2cc3[nH]ccc3cn2)o1)C1CCCCC1 [5-(1H-Pyrrolo[3,2-c]pyridin-6-yl)-furan-2-carboxylic acid ((S)-cyclohexyl-methylcarbamoyl-methyl)-amide]",6.99
2,CNC(=O)[C@@H](NC(=O)c1ccc(-c2ccc3nc(Cc4ccncc4)[nH]c3c2)o1)C1CCCCC1 [5-(2-Pyridin-4-ylmethyl-3H-benzimidazol-5-yl)-furan-2-carboxylic acid ((S)-cyclohexyl-methylcarbamoyl-methyl)-amide],7.47
3,CNC(=O)[C@@H](NC(=O)c1ccc(-c2ccc3nc[nH]c3c2)o1)C1CCCCC1 [5-(3H-Benzimidazol-5-yl)-furan-2-carboxylic acid ((S)-cyclohexyl-methylcarbamoyl-methyl)-amide],6.57
4,"CNC(=O)[C@@H](NC(=O)c1ccc(-c2ccc3cc(C(=O)N4CCS(=O)(=O)CC4)[nH]c3c2)o1)C(C)C [5-[2-(1,1-Dioxo-λ^6-1-thiomorpholine-4-carbonyl)-1H-indol-6-yl]-furan-2-carboxylic acid ((S)-2-methyl-1-methylcarbamoyl-propyl)-amide]",6.70
5,CNC(=O)[C@@H](NC(=O)c1ccc(-c2ccc3cc(C(=O)N4CCOCC4)[nH]c3c2)o1)C(C)C [5-[2-(Morpholine-4-carbonyl)-1H-indol-6-yl]-furan-2-carboxylic acid ((S)-2-methyl-1-methylcarbamoyl-propyl)-amide],6.38
6,CNC(=O)[C@@H](NC(=O)c1ccc(-c2ccc3cc(C(=O)N4CCOCC4)[nH]c3c2)o1)C1CCCCC1 [5-[2-(Morpholine-4-carbonyl)-1H-indol-6-yl]-furan-2-carboxylic acid ((S)-cyclohexyl-methylcarbamoyl-methyl)-amide],6.47

# More lines, now with the values ahead:
row,pIC50,Structure (SMILES)
1,6.54,CNC(=O)[C@@H](NC(=O)c1ccc(-c2ccc3cc[nH]c3c2)o1)C1CCCCC1 [5-(1H-Indol-6-yl)-furan-2-carboxylic acid ((S)-cyclohexyl-methylcarbamoyl-methyl)-amide]
2,7.19,"CNC(=O)[C@@H](NC(=O)c1ccc(-c2ccc3cc(C(=O)N4CC(C)OC(C)C4)[nH]c3c2)o1)C(C)C (stereo partly drawn) [5-[2-(2,6-Dimethyl-morpholine-4-carbonyl)-1H-indol-6-yl]-furan-2-carboxylic acid ((S)-2-methyl-1-methylcarbamoyl-propyl)-amide]"
3,6.52,CNC(=O)[C@@H](NC(=O)c1ccc(-c2ccc3cc(C(=O)N4CCN(C)CC4)[nH]c3c2)o1)C(C)C [5-[2-(4-Methyl-piperazine-1-carbonyl)-1H-indol-6-yl]-furan-2-carboxylic acid ((S)-2-methyl-1-methylcarbamoyl-propyl)-amide]
